Experimental data published in patent publication US6376200B1, “Kainate-binding, human CNS receptors of the EAA4 family” (priority 1992, dated 2002).
Read-outs that look alike come from different tables or passages of the source.

Assays:
human EAA4a receptor [1] = target: T1, human EAA4a receptor (Homo sapiens, UniProt Q13002); format: cell-based; design: transported to the cell surface in mature form, lacking the signal peptide and consisting of 877 amino acids; expressed in transfected cells; host or cells: Xenopus oocytes (stage V or VI), nuclear injection of pcDNAI/humEAA4a DNA; settings: for oocyte response to agonist: tested at -60, -80 and -100 mV
T1 sequence (Q13002 32-908): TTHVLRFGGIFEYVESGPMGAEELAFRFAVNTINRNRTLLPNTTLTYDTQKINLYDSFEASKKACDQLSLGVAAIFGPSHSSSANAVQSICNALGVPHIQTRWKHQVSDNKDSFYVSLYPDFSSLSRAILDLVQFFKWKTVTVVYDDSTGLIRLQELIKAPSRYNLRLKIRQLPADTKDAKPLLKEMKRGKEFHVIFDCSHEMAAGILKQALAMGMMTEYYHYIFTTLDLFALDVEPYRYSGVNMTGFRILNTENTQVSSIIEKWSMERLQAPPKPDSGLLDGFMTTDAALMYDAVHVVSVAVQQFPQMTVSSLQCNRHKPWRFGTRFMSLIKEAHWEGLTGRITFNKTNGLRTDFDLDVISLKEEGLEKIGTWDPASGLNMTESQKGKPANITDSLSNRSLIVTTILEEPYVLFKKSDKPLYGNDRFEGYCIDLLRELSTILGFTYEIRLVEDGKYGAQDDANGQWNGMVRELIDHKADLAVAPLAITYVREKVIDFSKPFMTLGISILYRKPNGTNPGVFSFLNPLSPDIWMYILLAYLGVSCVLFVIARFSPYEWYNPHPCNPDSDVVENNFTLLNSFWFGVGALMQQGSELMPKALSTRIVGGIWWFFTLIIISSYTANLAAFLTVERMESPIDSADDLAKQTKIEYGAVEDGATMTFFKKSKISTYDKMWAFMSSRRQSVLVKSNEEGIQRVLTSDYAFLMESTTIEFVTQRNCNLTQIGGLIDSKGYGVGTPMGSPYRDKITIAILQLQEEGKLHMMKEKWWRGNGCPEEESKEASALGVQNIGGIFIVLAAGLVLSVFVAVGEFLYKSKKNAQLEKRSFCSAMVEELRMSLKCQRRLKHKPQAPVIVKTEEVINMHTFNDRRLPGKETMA
Method: Xenopus oocytes (stage V or VI) were harvested and the nucleus of the oocytes was injected with 5 ng of pcDNAI/humEAA4a DNA.

human EAA4a receptor [2] = target: T1, human EAA4a receptor; settings: COS cell membranes
Method: Transfected cells in the frozen state were resuspended in ice-cold distilled water using a hand homogenizer and centrifuged for 20 miutes at 50,000 g. The supernatant was discarded and the membrane pellet stored frozen at −70° C.
Proteins were determined using the Pierce Reagent with BSA as standard.
Binding assays were then performed, using an amount of COS-derived membrane equivalent to 25-100 ug as judged by protein determination and selected radiolabelled ligand. […] Samples were incubated on ice for 60 minutes, and bound and free ligand were then separated by rapid filtration using a PHD cell harvester and GF/B filters pre-soaked in ice-cold 0.3% polyethyleneimine. Filters were washed twice in 4 ml of the cold incubation buffer, then placed in scintillation vials with 5 ml of Beckman Ready-Protein Plus scintillation cocktail for counting.
Samples were incubated on ice for 60 minutes in plastic minivials, and bound and free ligand were separated by centrifugation for 30 minutes at 50,000 g. Pellets were washed twice in 4 ml of the cold incubation buffer, then 5 ml of Beckman Ready-Protein Plus scintillation cocktail was added, for counting.

Compound | effect on the dose/response curve for L-glutamate (human EAA4a receptor [1]; DNQX 2×10^-6M, FIG. 10) | effect on the glutamate response (human EAA4a receptor [1]; oocytes, FIG. 8) | binding to EAA4a receptor (human EAA4a receptor [2]) | oocyte response to agonist (human EAA4a receptor [1]; 10^-4M) | oocyte response to agonist (human EAA4a receptor [1]; NMDA 10^-4M with glycine 10^-6M)
O=C1N=c2cc([N+](=O)[O-])c([N+](=O)[O-])cc2=NC1=O [DNQX, 6,7-dinitroquinoxaline-2,3-dione] | parallel shift of the dose/response curve for L-glutamate to the right | blocked the glutamate response | – | – | –
CN[C@H](CC(=O)O)C(=O)O [NMDA, N-methyl-D-aspartate] | – | – | little or no demonstrable binding | did not respond | did not respond
